Experimental data reported in patent publication EP0417790B1, “S-triazolo[3,4-i]purine derivatives” (Kyowa Hakko Kogyo Co., Ltd., priority 1989, dated 1991).
Where two headings read alike, the source gives them in different places.

Key:
male dd-mice = assay: Acute toxicity; format: in vivo; conditions: Minimum lethal dose, oral, mortality observed for seven days
Description: The compounds were orally administrated to male dd-mice weighing 20 ± 1 g. Minimum lethal dose (MLD) was determined by observing the mortality for seven days after the administration.

trachea = assay: Passive Schultz-Dale reaction (broncho-dilatory effect) on isolated tracheal strips; conditions: Cavia porcellus; 50% relaxation of antigen (EWA, 1 µg/ml)-contracted tracheal strips of passively sensitized guinea pigs
Description: Guinea pigs were passively sensitized as follows. Hartley male guinea pigs weighing 350 to 500 g were injected intraperitoneally with rabbit anti-egg albumin (EWA) serum prepared by the method of Koda et al. [Folia pharmacol., Japon 66, 237, (1970)]. After 24 hours, the guinea pigs were stunned and exsanguinated, and then trachea was excised. The zig-zag strips of the trachea were prepared by the method of Emmerson and Mackay [J. Pharm. Pharmacol., 31, 798, (1979)]. The strips were suspended in Krebs-Henseleit solution at 37°C under aeration of a mixed gas of 95% oxygen and 5% carbon dioxide, and incubated for one hour. Antigen (EWA) was then introduced in the solution (final concentration; 1 µg/ml), and the contraction was measured by isotonictransducer (TD-112s, made by Nihon Kohden K.K., Japan) and recorded on a recorder (Type 3066, made by Yokogawa-Hokushin Denki, K.K. Japan). After the contraction curves reached plateau the compounds were successively added in order to get cumulative concentration-relaxation curves. Concentration of 50% relaxation rate (IC50) was calculated from the regression line, which was obtained from cumulative concentration-relaxation curves.

Wistar male rats = assay: Diuretic activity; format: in vivo; conditions: Rattus norvegicus, po, 25 mg/kg orally, urine taken for 6 hours
Description: Wistar male rats weighing 150 to 300 g were used after fasting for 18 hours. […] The test was performed using 3 groups per test compound, and each group consists of 3 animals. The urine was metered by a measuring cylinder and electrolytes (Na^+ and K^+) in the urine were analyzed by flame photometer (model […]: Hitachi Ltd.). Parameters in Table 3 are represented by relative value for control.

[1] = relative value for control (1.00), read-out: Na^+/K^+
[2] = relative value for control (100), read-out: Excretion of K^+
[3] = relative value for control (100), read-out: Excretion of Na^+
[4] = relative value for control (100), read-out: Urine volume

SMILES | MLD (male dd-mice) | IC50 (trachea) | response vs control in vivo at 25 mg/kg (Wistar male rats; [1]) | response vs control in vivo at 25 mg/kg (Wistar male rats; [2]) | response vs control in vivo at 25 mg/kg (Wistar male rats; [3]) | response vs control in vivo at 25 mg/kg (Wistar male rats; [4])
CCCn1c(=O)n2c(=O)[nH]nc2c2[nH]c(C3CCCC3)nc21 [Compound 43, 8-Cyclopentyl-6-n-propyl-2,5,6,9-tetrahydro-3H-1,2,4-triazolo[3,4-i]purin-3,5-dione] | >300 mg/kg |  |  |  |  | 
CCCn1c(=O)n2c(-c3ccccc3Cl)nnc2c2c1ncn2C [Compound 10, 3-(2-Chlorophenyl)-6,9-dihydro-9-methyl-6-n-propyl-5H-1,2,4-triazolo[3,4-i]purin-5-one] | 300 mg/kg | 18 µM | 124% | 109% | 134% | 162%
CCCn1c(=O)n2c(-c3cccs3)nnc2c2[nH]cnc21 [Compound 33, 6,9-Dihydro-6-n-propyl-3-(2-thienyl)-5H-1,2,4-triazolo[3,4-i]purin-5-one] | >300 mg/kg |  |  |  |  | 
CCCn1c(=O)n2cnnc2c2c1ncn2C [Compound 36, 6,9-Dihydro-9-methyl-6-n-propyl-5H-1,2,4-triazolo[3,4-i]purin-5-one] | 300 mg/kg |  |  |  |  | 
CCCn1c(=O)n2c(-c3ccc([N+](=O)[O-])cc3)nnc2c2c1ncn2C [Compound 16, 6,9-Dihydro-9-methyl-3-(4-nitrophenyl)-6-n-propyl-5H-1,2,4-triazolo[3,4-i]purin-5-one] | >300 mg/kg |  | 111% | 175% | 194% | 170%
NS(=O)(=O)c1cc(C(=O)O)c(NCc2ccco2)cc1Cl [Furosemide, reference compound] |  |  | 105% |  |  | 
CCCn1c(=O)n2c(-c3cccs3)nnc2c2c1ncn2C [Compound 2, 6,9-Dihydro-9-methyl-6-n-propyl-3-(2-thienyl)-5H-1,2,4-triazolo[3,4-i]purin-5-one] | 300 mg/kg | 0.4 µM |  |  |  | 
Cn1cnc2c1c1nnc(-c3ccccc3)n1c(=O)n2-c1ccccc1 [Compound 29, 6,9-Dihydro-3,6-diphenyl-9-methyl-5H-1,2,4-triazolo[3,4-i]-purin-5-one] | >300 mg/kg |  | 141% | 110% | 155% | 170%
CCCn1c(=O)n2c(=S)[nH]nc2c2c1ncn2C [Compound 46, 9-Methyl-6-n-propyl-2,2,6,9-tetrahydro-3-thioxo-5H-1,2,4-triazolo[3,4-i]purin-5-one] | >300 mg/kg |  |  |  |  | 
CCCn1c(=O)n2c(-c3ccc(C(=O)OC)cc3)nnc2c2c1ncn2C [Compound 22, 6,9-Dihydro-3-(4-methoxycarbonylphenyl)-9-methyl-6-n-propyl-5H-1,2,4-triazolo[3,4-i]purin-5-one] | >300 mg/kg |  |  |  |  | 
CCCn1cnc2c1c1nnc(-c3ccncc3)n1c(=O)n2CCC [Compound 40Sa] | 100 mg/kg |  | 97% | 136% | 132% | 155%
CCCn1c(=O)n2c(=O)n(CC)nc2c2c1ncn2C [Compound 48, 2-Ethyl-9-methyl-6-n-propyl-2,5,6,9-tetrahydro-3H-1,2,4-triazolo[3,4-i]purin-2,5-dione] | >300 mg/kg |  |  |  |  | 
CCCn1c(=O)n2c(-c3cccnc3)nnc2c2[nH]cnc21 [Compound 32, 6,9-Dihydro-6-n-propyl-3-(3-pyridyl)-5H-1,2,4-triazolo[3,4-i]purin-5-one] |  |  | 152% | 129% | 196% | 195%
CCCn1c(=O)n2c(C)nnc2c2[nH]c(C3CCCC3)nc21 [Compound 27, 8-Cyclopentyl-6,9-dihydro-3-methyl-6-n-propyl-5H-1,2,4-triazolo[3,4-i]purin-5-one] | >300 mg/kg |  |  |  |  | 
Cn1cnc2c1c1nnc(-c3ccccc3)n1c(=O)n2Cc1ccccc1 [Compound 28, 6-Benzyl-6,9-dihydro-9-methyl-3-phenyl-5H-1,2,4-triazolo-[3,4-i]purin-5-one] | >300 mg/kg |  |  |  |  | 
CCn1nc2c3c(ncn3C)n(Cc3ccccc3)c(=O)n2c1=O [Compound 49, 6-Benzyl-2-ethyl-9-methyl-2,5,6,9-tetrahydro-3H-1,2,4-triazolo[3,4-i]purin-2,5-dione] |  |  | 161% | 173% | 279% | 300%
Cn1cnc2c1c1n[nH]c(=O)n1c(=O)n2Cc1ccccc1 [Compound 42, 6-Benzyl-9-methyl-2,5,6,9-tetrahydro-3H-1,2,4-triazolo[3,4-i]purin-3,5-dione] | >300 mg/kg |  |  |  |  | 
Cc1nnc2c3[nH]cnc3n(Cc3ccccc3)c(=O)n12 [Compound 37, 6-Benzyl-6,9-dihydro-3-methyl-5H-1,2,4-triazolo[3,4-i]purin-5-one] | >300 mg/kg |  |  |  |  | 
CCCn1c(=O)n2c(-c3ccc(Cl)c(Cl)c3)nnc2c2c1ncn2C [Compound 20, 3-(3,4-Dichlorophenyl)-6,9-dihydro-9-methyl-6-n-propyl-5H-1,2,4-triazolo[3,4-i]purin-5-one] | >300 mg/kg |  |  |  |  | 
CCCn1c(=O)n2c(-c3ccc(C)cc3)nnc2c2c1ncn2C [Compound 14, 6,9-Dihydro-9-methyl-3-(4-methylphenyl)-6-n-propyl-5H-1,2,4-triazolo[3,4-i]purin-5-one] | >300 mg/kg | 45 µM |  |  |  | 
CCCn1c(=O)n2c(-c3ccccc3)nnc2c2[nH]c(C3CCCC3)nc21 [Compound 26, 8-Cyclopentyl-6,9-dihydro-6-n-propyl-3-phenyl-5H-1,2,4-triazolo[3,4-i]purin-5-one] | >300 mg/kg |  |  |  |  | 
CCCn1c(=O)n2c(-c3ccc(OC)c(OC)c3)nnc2c2c1ncn2C [Compound 21, 6,9-Dihydro-3-(3,4-dimethoxyphenyl)-9-methyl-6-n-propyl-5H-1,2,4-triazolo[3,4-i]purin-5-one] | >300 mg/kg |  |  |  |  | 
CCCn1c(=O)n2c(-c3ccc(F)cc3)nnc2c2c1ncn2C [Compound 17, 6,9-Dihydro-3-(4-fluorophenyl)-9-methyl-6-n-propyl-5H-1,2,4-triazolo[3,4-i]purin-5-one] | >300 mg/kg |  | 142% | 134% | 179% | 178%
CCCn1c(=O)n2c(-c3ccccc3OC)nnc2c2c1ncn2C [Compound 7, 6,9-Dihydro-3-(2-methoxyphenyl)-9-methyl-6-n-propyl-5H-1,2,4-triazolo[3,4-i]purin-5-one] | 300 mg/kg |  | 133% | 122% | 162% | 173%
CCCn1c(=O)n2c(-c3ccc(C(F)(F)F)cc3)nnc2c2c1ncn2C [Compound 15, 6,9-Dihydro-9-methyl-6-n-propyl-3-(4-trifluoromethylphenyl)-5H-1,2,4-triazolo[3,4-i]purin-5-one] | >300 mg/kg |  |  |  |  | 
CCCn1c(=O)n2c(-c3ccccc3N)nnc2c2c1ncn2C [Compound 13, 3-(2-Aminophenyl)-6,9-dihydro-9-methyl-6-n-propyl-5H-1,2,4-triazolo[3,4-i]purin-5-one] | >300 mg/kg |  |  |  |  | 
CCCn1c(=O)n2c(-c3ccc(N(C)C)cc3)nnc2c2c1ncn2C [Compound 18, 6,9-Dihydro-3-(4-dimethylaminophenyl)-9-methyl-6-n-propyl-5H-1,2,4-triazolo[3,4-i]purin-5-one] | >300 mg/kg |  | 109% | 129% | 141% | 155%
CCCn1c(=O)n2c(-c3ccc(C(=O)O)cc3)nnc2c2c1ncn2C [Compound 23, 6,9-Dihydro-3-(4-carboxyphenyl)-9-methyl-6-n-propyl-5H-1,2,4-triazolo[3,4-i]purin-5-one] | >300 mg/kg |  |  |  |  | 
CCCn1c(=O)n2c(-c3cc(Cl)ccc3Cl)nnc2c2c1ncn2C [Compound 19, 3-(2,5-Dichlorophenyl)-6,9-dihydro-9-methyl-6-n-propyl-5H-1,2,4-triazolo[3,4-i]purin-5-one] | >300 mg/kg |  |  |  |  | 
CCCn1c(=O)n2c(-c3ccncc3)nnc2c2c1ncn2Cc1ccccc1 [Compound 39, 9-Benzyl-6,9-dihydro-6-n-propyl-3-(4-pyridyl)-5H-1,2,4-triazolo[3,4-i]purin-5-one] | >300 mg/kg |  | 127% | 145% | 184% | 185%
